US20240122878A1 (priority 2021, published 2024)
Where “and” joins values, the source holds several entries; their conditions need not be identical. Equal entries are not always repeated. Where two headings read alike, the source gives them in different places.

What was measured:
[1] = Phase 1 pharmacokinetics of immediate release esmethadone (Bernstein 2019); assay type: in vivo; conditions: human, plasma; 25 mg oral daily dosing ×10 days; read-out: Steady state Cmax
Description: […]. […] Therefore, dose proportionality and linearity after oral administration of each of the three molecules, based on the data from Bernstein 2019 and Foster 2004 are expected. […].
Steady state Curough concentrations (measured at Day 10) were 142.7, 326.2 and 338.8 ng/ml respectively.

[2] = system: patients with major depressive disorder; test: Phase 2a cardiodynamic ECG evaluation (concentration-QTc and by-time point analysis); assay type: in vivo, human
Description: (§1) Timed PK assessments were performed on Day 1 and after approximately 23 hours post Day 1 dosing, and thus for the exposure-response analysis only the Day 1 ECG data is utilized.
The 12-lead digital ECG equipment was supplied and supported by the central ECG core lab vendor, eResearch Technology, Inc., ERT (Philadelphia, PA). After a supine rest period, ECGs were collected in triplicate at the pre-specific time points indicated within the study protocol and described below.
Twelve-lead ECGs were to be performed in triplicate approximately 1 minute apart after lying quietly for at least 3 min at: • Screening • Check-in (Day—1) • Day 1: 1 hour pre-dose and 2 hours, 4 hours, 6 hours, and 8 hours post-dose on Day 1 • Day 2: 1 hour pre-dose (corresponding to 23 hours post-dose on Day 1) and 2 hours, 4 hours, 6 hours, and 8 hours post-dose • Days 3-7: 2 hours post-dose • Day 8 • Prior to discharge on Day 9 • End of the observation period (Day 14)
The QT and RR value for each measured beat were used for HR correction. Three beats were measured on each of the triplicate ECGs at each time point. The mean value from each triplicate tracing was calculated, and then the mean of all available measurements from a nominal time point were used as the patient's reportable value at that time point. • 5. ECG Methodology: Central Laboratory
[published correction appears in J Pharmacokinet Pharmacodyn. […] J Pharmacokinet Pharmacodyn. […] In all calculations, concentrations in patients who received placebo were set to zero.
(§2) The geometric mean of the individual Cmax values for patients in each of the active dose groups was determined.
An unstructured covariance matrix was specified for the repeated measures at post-dose time points within patient.

[3] = target: hERG (human ether-à-go-go-related gene) channel current (Homo sapiens, UniProt Q12809); test: GLP hERG channel current study of esmethadone
hERG = hERG (Homo sapiens, UniProt Q12809); test: GLP hERG channel current study of esmethadone; conditions: human
[4] = Phase 2a study plasma pharmacokinetics; assay type: in vivo, human; conditions: for Cmax: human, in vivo, C-QTc population
Description: as §1
PK sampling was done on Day 1 at 1 hour pre-dose and 0.5, 1, 2, 4, 6, 8, and 12 hours post-dose. On Day 2 through Day 7, sampling was done 1 hour pre-dose. On Day 8, sampling was done approximately 24 hours after the last dose of study drug (on Day 7). On Day 9, sampling was done approximately 48 hours after the last dose (on Day 7).
as §2

healthy volunteers = test: Phase 1 study esmethadone-112 concentration-QTc sub-analysis; assay type: in vivo, human
[5] = cited from earlier work
[6] = linear mixed-effects model, C-QTc population

Sequence of hERG (Q12809 whole entry): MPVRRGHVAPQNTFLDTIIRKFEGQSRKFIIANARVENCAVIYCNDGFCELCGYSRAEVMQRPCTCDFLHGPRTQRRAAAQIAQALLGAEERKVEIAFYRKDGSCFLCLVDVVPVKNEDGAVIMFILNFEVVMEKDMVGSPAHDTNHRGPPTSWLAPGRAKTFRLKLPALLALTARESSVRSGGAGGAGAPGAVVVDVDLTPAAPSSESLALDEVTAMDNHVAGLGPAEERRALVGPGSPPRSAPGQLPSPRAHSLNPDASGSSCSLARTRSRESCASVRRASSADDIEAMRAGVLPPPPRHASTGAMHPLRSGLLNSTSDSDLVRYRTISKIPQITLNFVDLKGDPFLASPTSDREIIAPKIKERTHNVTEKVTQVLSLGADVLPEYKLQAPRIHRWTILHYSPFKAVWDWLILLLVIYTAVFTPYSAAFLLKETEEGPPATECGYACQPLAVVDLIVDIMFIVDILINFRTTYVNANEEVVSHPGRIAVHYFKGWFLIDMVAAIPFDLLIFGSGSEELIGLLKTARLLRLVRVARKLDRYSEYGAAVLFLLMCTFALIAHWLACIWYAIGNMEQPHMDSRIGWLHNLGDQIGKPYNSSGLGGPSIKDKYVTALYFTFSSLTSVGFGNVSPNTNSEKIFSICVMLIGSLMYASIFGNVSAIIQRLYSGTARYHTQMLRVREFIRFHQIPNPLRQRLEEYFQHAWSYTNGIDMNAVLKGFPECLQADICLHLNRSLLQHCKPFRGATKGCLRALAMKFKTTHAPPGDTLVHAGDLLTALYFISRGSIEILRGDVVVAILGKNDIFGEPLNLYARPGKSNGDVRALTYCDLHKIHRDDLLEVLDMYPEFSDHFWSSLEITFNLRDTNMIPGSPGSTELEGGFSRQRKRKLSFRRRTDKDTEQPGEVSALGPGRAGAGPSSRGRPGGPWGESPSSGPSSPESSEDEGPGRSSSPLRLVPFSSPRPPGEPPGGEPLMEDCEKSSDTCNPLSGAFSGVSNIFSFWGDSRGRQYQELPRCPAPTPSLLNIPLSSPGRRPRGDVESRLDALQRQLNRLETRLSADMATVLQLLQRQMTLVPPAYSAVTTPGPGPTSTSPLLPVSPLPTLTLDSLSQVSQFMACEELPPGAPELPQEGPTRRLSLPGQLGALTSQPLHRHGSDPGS
Sequence of hERG (human ether-à-go-go-related gene) channel current (Q12809 whole entry): as above

## CCC(=O)C(C[C@H](C)N(C)C)(c1ccccc1)c1ccccc1 [esmethadone]
[1]
  Cmax: 273 ng/mL
[2]; 300 ng/ml, linear model, (90% CI)
  Model-predicted ΔΔQTcF at 10 ms Threshold concentration: 7.18 (4.36, 10.00) ms
[2]; 25 mg QD group after 75 mg loading dose, 265.2 ng/mL, linear model, (90% CI)
  Model-predicted ΔΔQTcF at geometric mean Cmax: 6.7 ms and 6.71 ms and 6.71 (3.94, 9.48) ms
[2]; 25 mg dose group (75 mg loading), Day 2 pre-dose time point
  Maximum LS mean ΔΔQTcF, by-time point analysis: 7.7 ms
[2]; 50 mg QD group after 100 mg loading dose, 337.8 ng/mL, linear model, (90% CI)
  Model-predicted ΔΔQTcF at geometric mean Cmax: 7.7 ms and 7.69 ms and 7.69 (4.80, 10.58) ms
[2]; 50 mg dose group (100 mg loading), Day 1, 8 hour time point
  Maximum LS mean ΔΔQTcF, by-time point analysis: 10.9 ms
[2]; [6]
  Slope of the concentration-QTc relationship (esmethadone Slope): 0.014 ms per ng/mL
  Treatment effect-specific intercept (Treatment Effect): 3.11 ms
[2]; studied doses
  ECG morphology changes: no clinically significant ECG morphology changes
  Effect on QTc: modest, dose-dependent increase in QTc
  Effect on heart rate, PR, or QRS: no clinically significant effect
[3]
  IC50: 1000 nM
[3]; GLP study
  Hill coefficient: 0.8
hERG
  inhibition at 0.3 µM: 27.3 ± 1.6%
  inhibition at 1 µM: 48.8 ± 3.4%
  inhibition at 3 μM: 68.6 ± 0.3%
  inhibition at 10 µM: 88.6 ± 0.7%
[4]; 25 mg (75 mg Day 1)
  Highest PK values on Day 1: 254.5 ng/mL
[4]; 50 mg (100 mg Day 1)
  Highest PK values on Day 1: 343.9 ng/mL
[4]; 25 mg QD group, Day 1 after 75 mg loading dose
  Cmax: 265 ng/mL
[4]; 50 mg QD group, Day 1 after 100 mg loading dose
  Cmax: 338 ng/mL
Healthy volunteers; Day 10
  Effect on HR: mild HR slowing
Healthy volunteers; Day 10, 25 mg cohort
  Peak ΔΔQTcF, time-based central tendency analysis: 11.5 ms
Healthy volunteers; Day 10, 50 mg QD cohort
  Peak ΔΔQTcF, time-based central tendency analysis: 26.8 ms
Healthy volunteers; Day 10, 75 mg QD cohort
  Peak ΔΔQTcF, time-based central tendency analysis: 28.8 ms
Healthy volunteers; categorical analysis, any treatment group
  Subjects with pronounced QTcF prolongation (QTcF>60 ms or absolute QTcF>480 ms): no subjects
Healthy volunteers; in vivo
  Effects on the PR or QRS intervals: no clinically meaningful effects
[5]; 25 mg
  Steady state Ctrough concentration (Day 10): 142.7 ng/mL
[5]; 50 mg
  Steady state Ctrough concentration (Day 10): 326.2 ng/mL
[5]; 75 mg
  Steady state Ctrough concentration (Day 10): 338.8 ng/mL
